Test results from patent US20150064111A1, “NOVEL TARGETING AGENTS FOR DIAGNOSTIC AND THERAPEUTIC INDICATIONS” (APOSENSE LTD., priority 2012, published 2015).

Key:
[1] = test system: CD95-treated Jurkat cells; assay: In-vitro screening: uptake of tritiated compounds into apoptotic Jurkat cells; type: cell-based; details: tritiated compound, 30 minutes, 37° C., beta-counter; control untreated uptake set as 1
Experimental: Uptake was measured using beta counter. zVAD treated cells reversed the phenotype decreasing uptake to control values (set as 1) in all tested candidates. Shown are means±SD of three independent experiments performed in triplicates.
For in-vitro screening of the compounds of the invention, apoptosis-induction model in hematopoietic derived cancer cell line, Jurkat was used.
Jurkat cells were cultured in RPMI supplemented with 10% fetal bovine serum, 4 mM L-glutamine, 100 U/ml penicillin and 100 n/ml streptomycin in a humidified incubator at 37° C., 5% CO2. Cells were counted and re-suspended in hepes buffer saline (HBS).
Apoptosis induction: 10^7 cells/ml were incubated for two hours with 0.1 n/ml of anti-Fas (CD95) antibody. For apoptosis inhibition (specific control), induced and control cells were incubated with 50 μM of the specific caspase inhibitor, Zvad. 2 μl Ci of the tritiated compounds or ML-10 as reference, were added to the cells for 30 minutes. All incubations were performed at 37° C. After incubation with the tritiated compounds, cells were washed twice in HBS, transferred to scintillation liquid and radioactivity was monitored using beta-counter. The percentage of uptake was calculated using the standard DPM readings. […]

[2] = Pharmacokinetic evaluation of tritiated candidates in naive and chemotherapy treated mice; details: mouse, in vivo
Text: (§1) In order to determine the pharmacokinetics properties of APO-698, its unlabeled analog, APO-697 was used. Table-1 summarizes the pharmacokinetic study performed in CD1 mice for the two unlabeled (cold) analogs, ML-10 and APO-697.

[3] = test system: human colorectal cancer cells HCT-116 xenografts; assay: In-vivo screening: tumor/blood uptake ratio in HCT-116 xenografts; parameters: species or system Athymic nude mice; details: intravenous tritiated compound, HCT-116 xenograft, FIG. 2 (one and a half hours before samples collection)
Experimental: Athymic nude mice were inoculated with HCT-116 human colorectal cancer cells. Mice were subjected to intravenous injection of tritiated ML-10 and APO-650 one and a half hours before samples collection. Blood samples were taken before sacrificing the animals. Blood and tumor samples radioactivity was measured in a beta-counter.
In order to assess the in-vivo accumulation of ML-10 and compounds of the invention, the uptake into human colorectal cancer cells HCT-116 xenografts was monitored. Athymic nude mice were subcutaneously inoculated with […] HCT-116 cells. After the formation of tumors, ML-10 and APO-650 were intravenously administrated to the mice, 30 and 90 minutes before scarification (n≧8). Peripheral blood samples were collected prior to animals' scarification. Tumors were dissected, homogenized and all samples were calibrated in scintillation fluid before radioactivity was measured in a beta-counter. To inspect signal to noise ratio, the ratio of uptake into the tumor versus blood was calculated.

[4] = Blood partitioning (red blood cells/plasma); type: in vitro ADME; details: mouse blood
Text: as §1

[5] = Pharmacokinetic study of unlabeled (cold) analogs in CD1 mice; type: in vivo; details: for AUC(0-inf) / half-life / clearance / Vd: mouse, in vivo; for clearance: read-out: Total clearance (converted); for Vd: read-out: Vss; for Total clearance, percentage in brackets / Vss, percentage in brackets: reference of the percentage not explained
Text: as §1

For `CC(CCCCC[18F])(c1nnn[nH]1)c1nnn[nH]1` [APO-600, 5,5′(7-^18fluoroheptane-2,2-diyl)bis(1H-tetrazole)], the “fold increase uptake of CD95-treated cells (uptake of the tracer into the apoptotic cells)” value [1] was “high uptake”.
For `O=C(O)c1ccc(CCC[18F])cc1C(=O)O` [APO-630, 4-(3-^18fluoropropyl)phthalic acid], the “fold increase uptake of CD95-treated cells (uptake of the tracer into the apoptotic cells)” value [1] was “high uptake” and the half-life ([2]; t1/2) was 10 min.
In the case of `CN(CCCCC(C)(C(=O)O)C(=O)O)c1ncc([N+](=O)[O-])s1` [APO-650, 2-methyl-2-{4-[(5-nitro-1,3-thiazol-2-yl)tritritiummethylamino]butyl}propanedioic acid], the tumor/blood ratio [3] is reported as “six-fold” and the half-life ([2]; t1/2) is reported as 8 min.
Molecule `COc1cc2c(c(OC)c1OC)-c1ccc(OC)c(=O)cc1[C@@H](NC(=O)CCCCCC(C)(C(=O)O)C(=O)O)CC2` [APO-697, 2-methyl-2-(5-{[(10S)-3,4,5,14-tetramethoxy-13-oxotricyclo[9.5.0.0{2,7}]hexadeca-1(16),2,4,6,11,14-hexaen-10-yl]carbamoyl}pentyl)propanedioic acid] has a KRBC/PL [4] of 0.07, an AUC(0-inf) ([5]; unlabeled compound) of 5.16 ng·h/mL and a half-life ([5]; unlabeled compound) of 7.92 min. The clearance ([5]; unlabeled compound) was 64.7 mL/min/kg, the Vd ([5]; unlabeled compound) was 0.435 L/kg and the “Total clearance, percentage in brackets” value [5] was “(71.9%)”. The “Vss, percentage in brackets” value [5] was “(60.0%)”, the Total clearance ([5]; unlabeled compound) was “higher” and the Vss ([5]; unlabeled compound) was “higher volume of distribution”. The t1/2 ([5]; unlabeled compound) was “shorter t1/2”.
`CC(CCCCCF)(C(=O)O)C(=O)O` [ML-10, (5-fluoropentyl)(methyl)propanedioic acid, reference compound] showed a KRBC/PL [4] of 0.01, an AUC(0-inf) ([5]; unlabeled compound) of 32.6 ng·h/mL and a half-life ([5]; unlabeled compound) of 11.2 min. The clearance ([5]; unlabeled compound) was 10.2 mL/min/kg, the Vd ([5]; unlabeled compound) was 0.152 L/kg and the “Total clearance, percentage in brackets” value [5] was “(11.4%)”. The “Vss, percentage in brackets” value [5] was “(21.0%)” and the half-life ([2]; Naive mice, tritiated, read-out: t1/2) was 10 min.
